Test results reported in US6703042B1, “Salts of L-carnitine and lower alkanoyl L-carnitine” (Sigma-Tau Industries Farmaceutiche Riunite S.p.A., priority 1999, dated 2004).
Where a name gives a salt, the structure may show the parent alone.

What was measured:
[1] = Hygroscopicity: increase in weight and appearance after exposure to humidity; assay type: physicochemical; conditions: exposure to 70±5% relative humidity, at 25° C. for 24 hours
[2] = Hygroscopicity of the solid as stated in the preparation examples; assay type: physicochemical
[3] = background statement; cited from earlier work

CC(=O)O[C@H](CC(=O)O)C[N+](C)(C)C.[Cl-] [Acetyl-L-carnitine chloride, reference compound]
Appearance [1]: clumped mass | Increase in weight (%) [1]: 8%

CC(=O)O[C@H](CC(=O)[O-])C[N+](C)(C)C [Acetyl-L-carnitine inner salt, reference compound]
Hygroscopicity of the solid [2]: Very Hygroscopic | Appearance [1]: deliquescent | Increase in weight (%) [1]: 19%

C[N+](C)(C)C[C@H](O)CC(=O)O.C[N+](C)(C)C[C@H](O)CC(=O)O.O=C([O-])C(O)C(O)C(=O)[O-] [L(−)-carnitine tartrate]
Hygroscopicity (known salts, prior art) [3]: non-hygroscopic

C[N+](C)(C)C[C@H](O)CC(=O)[O-] [L-carnitine inner salt, reference compound]
Appearance [1]: deliquescent | Increase in weight (%) [1]: 23%

Cl.N[C@@H](CS)C(=O)O [L-cysteine Hydrochloride]
Hygroscopicity of the solid [2]: Very Hygroscopic

CCC(=O)O[C@H](CC(=O)O)C[N+](C)(C)C.[Cl-] [Propionyl-L-carnitine chloride, reference compound]
Appearance [1]: deliquescent | Increase in weight (%) [1]: 15%

CC(=O)O[C@H](CC(=O)O)C[N+](C)(C)C.O=C([O-])/C=C/C(=O)O [acetyl L(−)-carnitine acid fumarate]
Hygroscopicity (known salts, prior art) [3]: strongly hygroscopic

Acetyl L-carnitine L-arginate Hydrochloride [Example 5]
Hygroscopicity of the solid [2]: non-hygroscopic | Appearance [1]: no variation | Increase in weight (%) [1]: 0.45%

Acetyl L-carnitine L-asparaginate Hydrochloride [Example 9]
Hygroscopicity of the solid [2]: non-hygroscopic | Appearance [1]: no variation | Increase in weight (%) [1]: 0.3%

Acetyl L-carnitine L-aspartate Hydrochloride [Example 8]
Hygroscopicity of the solid [2]: non-hygroscopic | Appearance [1]: no variation | Increase in weight (%) [1]: 0.7%

Acetyl L-carnitine L-cysteinate Hydrochloride [Example 4]
Hygroscopicity of the solid [2]: non-hygroscopic | Appearance [1]: no variation | Increase in weight (%) [1]: 0.6%

Acetyl L-carnitine L-glutamate Hydrochloride [Example 6]
Hygroscopicity of the solid [2]: non-hygroscopic | Appearance [1]: no variation | Increase in weight (%) [1]: 0.4%

Acetyl L-carnitine L-glutaminate Hydrochloride [Example 7]
Hygroscopicity of the solid [2]: non-hygroscopic | Appearance [1]: no variation | Increase in weight (%) [1]: 0.6%

Acetyl L-carnitine L-isoleucinate hydrochloride [Example 1]
Hygroscopicity of the solid [2]: non-hygroscopic | Appearance [1]: no variation | Increase in weight (%) [1]: 0.2%

L(−)-carnitine acid fumarate
Hygroscopicity (known salts, prior art) [3]: non-hygroscopic
